The results in this text go back to patent US9346815B2, “5-chloro-2-difluoromethoxyphenyl pyrazolopyrimidine compounds, compositions and methods of use thereof” (Genentech, Inc., priority 2014, dated 2016).

Where a name gives a salt, the structure may show the parent alone.

For experiment [1], the target named is isolated recombinant JAK2 kinase domain (Homo sapiens (Human), UniProt O60674). Kind of experiment: JAK2 enzyme assay (Caliper LabChip, peptide phosphorylation). It counts as biochemical. The note with it: 25 μM ATP.
The target in experiment [2] is isolated recombinant JAK1 kinase domain (Homo sapiens (Human), UniProt P23458). Kind of experiment: JAK1 enzyme assay (Caliper LabChip, peptide phosphorylation). The format is biochemical. As to conditions: isolated recombinant JAK1 kinase domain, 25 μM ATP.
For experiment [3], the system named is JAK1-dependent STAT6 phosphorylation downstream of IL-13 stimulation in TF-1 human erythroleukemia cells. Description: JAK1 pathway assay in TF-1 cells (IL-13-pSTAT6, MSD). The format is cell-based. The note with it: Homo sapiens, TF-1, TF-1 cells, read-out: IL13-pSTAT6 EC50_TF-1. Summed up: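 BEAS-2B: complete growth medium, compound 1 hr at 37° C. TF-1: GM-CSF-starved overnight, serum-free OptiMEM, compound 30 min.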

isolated recombinant JAK1 kinase domain, sequence (P23458 875-1153): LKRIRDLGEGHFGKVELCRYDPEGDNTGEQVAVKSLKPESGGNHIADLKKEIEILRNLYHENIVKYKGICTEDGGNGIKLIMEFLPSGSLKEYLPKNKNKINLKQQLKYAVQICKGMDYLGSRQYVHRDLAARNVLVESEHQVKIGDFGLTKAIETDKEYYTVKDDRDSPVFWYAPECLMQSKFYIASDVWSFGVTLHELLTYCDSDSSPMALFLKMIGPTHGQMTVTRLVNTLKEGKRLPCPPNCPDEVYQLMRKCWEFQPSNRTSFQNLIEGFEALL
isolated recombinant JAK2 kinase domain, sequence (O60674 849-1124): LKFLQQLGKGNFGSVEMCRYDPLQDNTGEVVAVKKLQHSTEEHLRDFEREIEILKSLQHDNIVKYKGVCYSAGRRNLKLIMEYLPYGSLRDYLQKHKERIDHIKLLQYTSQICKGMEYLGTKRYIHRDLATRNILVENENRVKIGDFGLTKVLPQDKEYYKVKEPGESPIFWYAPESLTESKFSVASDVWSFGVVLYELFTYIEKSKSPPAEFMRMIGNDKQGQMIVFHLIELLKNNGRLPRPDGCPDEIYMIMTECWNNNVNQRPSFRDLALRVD

Usually Ki stands for a dissociation constant, usually derived from enzyme kinetics or from competition with a known ligand. On to `O=C(Nc1sc(N2CCC(N3CC(F)C3)CC2)nc1-c1cc(Cl)ccc1OC(F)F)c1cnn2cccnc12` [Example 194, N-[4-[5-chloro-2-(difluoromethoxy)phenyl]-2-[4-(3-fluoroazetidin-1-yl)-1-piperidyl]thiazol-5-yl]pyrazolo[1,5-a]pyrimidine-3-carboxamide], for which the values for the Ki in experiment [1] and in experiment [2] were 1.44 nM and 2.28 nM, respectively. Moreover, the EC50 in experiment [3] was 17.4 nM.

In the case of `O=C(Nc1sc(N2CC(N3CCCCC3)C2)nc1-c1cc(Cl)ccc1OC(F)F)c1cnn2cccnc12` [Example 195, N-[4-[5-chloro-2-(difluoromethoxy)phenyl]-2-[3-(1-piperidyl)azetidin-1-yl]thiazol-5-yl]pyrazolo[1,5-a]pyrimidine-3-carboxamide], the Ki in experiment [1] amounted to 0.86 nM; in experiment [2] it was 1.36 nM. For the same compound, in experiment [3], the EC50 came out at 16.5 nM.

Consider `O=C(Nc1sc(N2CCC(N3CC(F)(F)C3)CC2)nc1-c1cc(Cl)ccc1OC(F)F)c1cnn2cccnc12` [Example 196, N-[4-[5-chloro-2-(difluoromethoxy)phenyl]-2-[4-(3,3-difluoroazetidin-1-yl)-1-piperidyl]thiazol-5-yl]pyrazolo[1,5-a]pyrimidine-3-carboxamide], for which the values for the Ki in experiment [1] and in experiment [2] were 1.05 nM and 1.74 nM, respectively. The EC50 in experiment [3] was determined as 17.4 nM.

Regarding `CCCCN(C)C1CCN(c2nc(-c3cc(Cl)ccc3OC(F)F)c(NC(=O)c3cnn4cccnc34)s2)CC1` [Example 199, N-[2-[4-[butyl(methyl)amino]-1-piperidyl]-4-[5-chloro-2-(difluoromethoxy)phenyl]thiazol-5-yl]pyrazolo[1,5-a]pyrimidine-3-carboxamide], the Ki worked out at 1.07 nM in experiment [1] and 1.22 nM in experiment [2]. Moreover, the EC50 in experiment [3] was determined as 7.3 nM.

Regarding `CN(Cc1ccccc1)C1CCN(c2nc(-c3cc(Cl)ccc3OC(F)F)c(NC(=O)c3cnn4cccnc34)s2)CC1` [Example 201, N-[2-[4-[benzyl(methyl)amino]-1-piperidyl]-4-[5-chloro-2-(difluoromethoxy)phenyl]thiazol-5-yl]pyrazolo[1,5-a]pyrimidine-3-carboxamide], the Ki turned out to be 3.76 nM in experiment [1] and 5.05 nM in experiment [2]. Moreover, the EC50 in experiment [3] came to 184 nM.

Consider `CN(CC(F)(F)F)C1CCN(C(=O)C2CCN(c3nc(-c4cc(Cl)ccc4OC(F)F)c(NC(=O)c4cnn5cccnc45)s3)CC2)CC1` [Example 202, N-[4-[5-chloro-2-(difluoromethoxy)phenyl]-2-[4-[4-[methyl(2,2,2-trifluoroethyl)amino]piperidine-1-carbonyl]-1-piperidyl]thiazol-5-yl]pyrazolo[1,5-a]pyrimidine-3-carboxamide], for which the results for the Ki in experiment [1] and in experiment [2] were 1.82 nM and 1.1 nM, respectively. In addition, in experiment [3], the EC50 was found to be 15.8 nM.

`O=C(Nc1sc(N2CCN(CC3CC3)CC2)nc1-c1cc(Cl)ccc1OC(F)F)c1cnn2cccnc12` [Example 207, N-[4-[5-chloro-2-(difluoromethoxy)phenyl]-2-[4-(cyclopropylmethyl)piperazin-1-yl]thiazol-5-yl]pyrazolo[1,5-a]pyrimidine-3-carboxamide]: the Ki in experiment [1] worked out at 0.69 nM; in experiment [2] it was 1.01 nM. In experiment [3], the EC50 is 23.6 nM.

Consider `O=C(Nc1sc(N2CCN(CC(F)(F)F)CC2)nc1-c1cc(Cl)ccc1OC(F)F)c1cnn2cccnc12` [Example 208, N-[4-[5-chloro-2-(difluoromethoxy)phenyl]-2-[4-(2,2,2-trifluoroethyl)piperazin-1-yl]thiazol-5-yl]pyrazolo[1,5-a]pyrimidine-3-carboxamide], for which the Ki in experiment [1] turned out to be 1.08 nM; in experiment [2], 1.38 nM. Further, the EC50 in experiment [3] was 33.5 nM.

Regarding `CCCCN(C)CC#Cc1nc(-c2cc(Cl)ccc2OC(F)F)c(NC(=O)c2cnn3cccnc23)s1` [Example 210, N-[2-[3-[butyl(methyl)amino]prop-1-ynyl]-4-[5-chloro-2-(difluoromethoxy)phenyl]thiazol-5-yl]pyrazolo[1,5-a]pyrimidine-3-carboxamide], the Ki in experiment [1] is 0.1 nM; in experiment [2] it was 0.16 nM. Also, in experiment [3], the EC50 turned out to be 240 nM.

For `CN1CCC2(C1)CN(C(=O)Cn1cc(NC(=O)c3cnn4cccnc34)c(-c3cc(Cl)ccc3OC(F)F)n1)C2` [Example 211, Pyrazolo[1,5-a]pyrimidine-3-carboxylic acid {3-(5-chloro-2-difluoromethoxyphenyl)-1-[2-(6-methyl-2,6-diazaspiro[3.4]oct-2-yl)-2-oxoethyl]-1H-pyrazol-4-yl}amide], the Ki stood at 1.38 nM in experiment [1] and 1.1 nM in experiment [2]. In addition, in experiment [3], the EC50 is 20.9 nM.

As to `CN1CCC2(CCN(C(=O)Cn3cc(NC(=O)c4cnn5cccnc45)c(-c4cc(Cl)ccc4OC(F)F)n3)C2)C1` (stereo not drawn) [Example 212, N-[3-[5-chloro-2-(difluoromethoxy)phenyl]-1-[2-(7-methyl-2,7-diazaspiro[4.4]nonan-2-yl)-2-oxo-ethyl]pyrazol-4-yl]pyrazolo[1,5-a]pyrimidine-3-carboxamide], the Ki came out at 1.93 nM in experiment [1] and 0.91 nM in experiment [2]. For the same compound, in experiment [3], the EC50 came out at 30.6 nM.

As to `CN1CCC2(CC1)CN(C(=O)Cn1cc(NC(=O)c3cnn4cccnc34)c(-c3cc(Cl)ccc3OC(F)F)n1)C2` [Example 216, N-[3-[5-chloro-2-(difluoromethoxy)phenyl]-1-[2-(7-methyl-2,7-diazaspiro[3.5]nonan-2-yl)-2-oxo-ethyl]pyrazol-4-yl]pyrazolo[1,5-a]pyrimidine-3-carboxamide], the Ki in experiment [1] stood at 1.82 nM; in experiment [2], 1.13 nM. Moreover, the EC50 in experiment [3] stood at 12.5 nM.

With `O=C(Nc1cn(CC(=O)N2CC3(CCNC3)C2)nc1-c1cc(Cl)ccc1OC(F)F)c1cnn2cccnc12` [Example 220, N-[3-[5-chloro-2-(difluoromethoxy)phenyl]-1-[2-(2,7-diazaspiro[3.4]octan-2-yl)-2-oxo-ethyl]pyrazol-4-yl]pyrazolo[1,5-a]pyrimidine-3-carboxamide], the Ki came out at 2.71 nM in experiment [1] and 1.22 nM in experiment [2]. Besides, the EC50 in experiment [3] stood at 1170 nM.

For `CN1CCC2(CC1)CCN(C(=O)Cn1cc(NC(=O)c3cnn4cccnc34)c(-c3cc(Cl)ccc3OC(F)F)n1)C2` [Example 222, N-[3-[5-chloro-2-(difluoromethoxy)phenyl]-1-[2-(8-methyl-2,8-diazaspiro[4.5]decan-2-yl)-2-oxo-ethyl]pyrazol-4-yl]pyrazolo[1,5-a]pyrimidine-3-carboxamide], the Ki amounted to 1.59 nM in experiment [1] and 0.54 nM in experiment [2]. For the same compound, the EC50 in experiment [3] came out at 28.9 nM.

On to `O=C(Nc1cn(CC(=O)N2CCC3(CCNC3)CC2)nc1-c1cc(Cl)ccc1OC(F)F)c1cnn2cccnc12` [Example 223, N-[3-[5-chloro-2-(difluoromethoxy)phenyl]-1-[2-(2,8-diazaspiro[4.5]decan-8-yl)-2-oxo-ethyl]pyrazol-4-yl]pyrazolo[1,5-a]pyrimidine-3-carboxamide], for which the figures for the Ki in experiment [1] and in experiment [2] were 0.72 nM and 0.44 nM, respectively. The EC50 in experiment [3] stood at 187 nM.

As to `CN1CCC2(CCN(C(=O)Cn3cc(NC(=O)c4cnn5cccnc45)c(-c4cc(Cl)ccc4OC(F)F)n3)CC2)C1` [Example 224, N-[3-[5-chloro-2-(difluoromethoxy)phenyl]-1-[2-(2-methyl-2,8-diazaspiro[4.5]decan-8-yl)-2-oxo-ethyl]pyrazol-4-yl]pyrazolo[1,5-a]pyrimidine-3-carboxamide], the inhibition constant Ki in experiment [1] amounted to 1.47 nM; in experiment [2] it was 0.56 nM. Moreover, in experiment [3], the EC50 turned out to be 19.3 nM.

For `O=C(Nc1cn(CC(=O)N2CCC3(CCN(CC4CCN(C(=O)OCc5ccccc5)CC4)C3)CC2)nc1-c1cc(Cl)ccc1OC(F)F)c1cnn2cccnc12` [Example 226, benzyl 4-[[8-[2-[3-[5-chloro-2-(difluoromethoxy)phenyl]-4-(pyrazolo[1,5-a]pyrimidine-3-carbonylamino)pyrazol-1-yl]acetyl]-2,8-diazaspiro[4.5]decan-2-yl]methyl]piperidine-1-carboxylate], the Ki in experiment [1] was determined as 1.11 nM; in experiment [2] it was 0.41 nM. In addition, in experiment [3], the EC50 amounted to 41.5 nM.

`CN1CCCN(C(=O)Cn2cc(NC(=O)c3cnn4cccnc34)c(-c3cc(Cl)ccc3OC(F)F)n2)CC1` [Example 239, N-[3-[5-chloro-2-(difluoromethoxy)phenyl]-1-[2-(4-methyl-1,4-diazepan-1-yl)-2-oxo-ethyl]pyrazol-4-yl]pyrazolo[1,5-a]pyrimidine-3-carboxamide]: the Ki in experiment [1] turned out to be 2.38 nM; in experiment [2], 1.55 nM. For the same compound, in experiment [3], the EC50 was found to be 8.6 nM.

For the compound `CN1CCCN(C(=O)Cn2cc(NC(=O)c3c(N)nn4cccnc34)c(-c3cc(Cl)ccc3OC(F)F)n2)CC1` [Example 246, 2-amino-N-[3-[5-chloro-2-(difluoromethoxy)phenyl]-1-[2-(4-methyl-1,4-diazepan-1-yl)-2-oxo-ethyl]pyrazol-4-yl]pyrazolo[1,5-a]pyrimidine-3-carboxamide], the Ki in experiment [1] came out at 0.57 nM; in experiment [2], 1.08 nM. In experiment [3], the EC50 was 48.8 nM.

`Nc1nn2cccnc2c1C(=O)Nc1cn(CC(=O)N2CCNCC2)nc1-c1cc(Cl)ccc1OC(F)F` [Example 249, 2-amino-N-[3-[5-chloro-2-(difluoromethoxy)phenyl]-1-(2-oxo-2-piperazin-1-yl-ethyl)pyrazol-4-yl]pyrazolo[1,5-a]pyrimidine-3-carboxamide]: the values for the Ki in experiment [1] and in experiment [2] were 0.44 nM and 0.73 nM, respectively. The EC50 in experiment [3] amounted to 32.3 nM.

Take `CN(C)C1CCN(C(=O)c2ccc(-c3nc(-c4cc(Cl)ccc4OC(F)F)c(NC(=O)c4cnn5cccnc45)s3)cc2)CC1` [Example 253, Pyrazolo[1,5-a]pyrimidine-3-carboxylic acid {4-(5-chloro-2-difluoromethoxy-phenyl)-2-[4-(4-dimethylamino-piperidine-1-carbonyl)-phenyl]-thiazol-5-yl}-amide hydrochloride]: the Ki in experiment [1] was found to be 0.41 nM; in experiment [2], 0.56 nM. In addition, the EC50 in experiment [3] was 18.3 nM.
